Key:
serotonin-reuptake sites = target: T1, serotonin-reuptake sites (Rattus norvegicus, UniProt P31652); assay: Determination of affinity for serotonin-reuptake sites in the rat ([3H]-paroxetine competition); type: binding; details: rat frontal cortex membranes, 0.25 nM [3H]-paroxetine, 2 hours at 25° C.
T1 construct: The membranes are prepared from rat frontal cortex; from tissue; host or cells: rat frontal cortex membranes
Description: Determination of Affinity for Serotonin-reuptake Sites in the Rat The affinity of the compounds of the invention was determined by competition experiments with [^3H]-paroxetine. The membranes are prepared from rat frontal cortex and are incubated in triplicate with 0.25 nM [^3H]-paroxetine and the cold ligand in a final volume of 0.4 ml, for 2 hours at 25° C. The incubation buffer contains 50 mM TRIS-HCl (pH 7.4), 120 mM NaCl and 5 mM KCl. Non-specific binding is determined using 10 μM citalopram. At the end of the incubation, the mixture is filtered through filters and washed three times with 5 ml of cooled buffer. The radioactivity retained on the filters is determined by liquid scintillation counting. The binding isotherms are analysed by non-linear regression to determine the IC50 values. The latter are converted into a dissociation constant (Ki) using the Cheng-Prusoff equation: Ki=IC50/[…] wherein L is the concentration of [^3H]-paroxetine and Kd is the dissociation constant (0.13 nM).

[1] = system: spontaneous marble-burying behaviour of mice; assay: Marble-burying test in mice; type: in vivo; details: Mus musculus, 0.5 h; male NMRI mice, 24 marbles, 30 minutes' free exploration; read-out: ED50 (Efficacy dose 50), inhibition of marble-burying
From the text: Marble-burying Test in Mice This test enables evaluation of the capacity of pharmacological agents to inhibit the spontaneous marble-burying behaviour of mice, the inhibition being predictive of antidepressant and/or anti-impulsive action. Male mice of the NMRI strain weighing from 20 to 25 g on the day of the experiment are placed individually in Macrolon boxes (30×18×19 cm) containing 5 cm of sawdust and covered with a perforated plexiglass plate. Twenty four “tiger's eye” glass marbles are evenly distributed on the sawdust at the periphery of the box. At the end of 30 minutes' free exploration, the animals are removed from the box and the number of buried marbles is counted.

T1 sequence (P31652 whole entry): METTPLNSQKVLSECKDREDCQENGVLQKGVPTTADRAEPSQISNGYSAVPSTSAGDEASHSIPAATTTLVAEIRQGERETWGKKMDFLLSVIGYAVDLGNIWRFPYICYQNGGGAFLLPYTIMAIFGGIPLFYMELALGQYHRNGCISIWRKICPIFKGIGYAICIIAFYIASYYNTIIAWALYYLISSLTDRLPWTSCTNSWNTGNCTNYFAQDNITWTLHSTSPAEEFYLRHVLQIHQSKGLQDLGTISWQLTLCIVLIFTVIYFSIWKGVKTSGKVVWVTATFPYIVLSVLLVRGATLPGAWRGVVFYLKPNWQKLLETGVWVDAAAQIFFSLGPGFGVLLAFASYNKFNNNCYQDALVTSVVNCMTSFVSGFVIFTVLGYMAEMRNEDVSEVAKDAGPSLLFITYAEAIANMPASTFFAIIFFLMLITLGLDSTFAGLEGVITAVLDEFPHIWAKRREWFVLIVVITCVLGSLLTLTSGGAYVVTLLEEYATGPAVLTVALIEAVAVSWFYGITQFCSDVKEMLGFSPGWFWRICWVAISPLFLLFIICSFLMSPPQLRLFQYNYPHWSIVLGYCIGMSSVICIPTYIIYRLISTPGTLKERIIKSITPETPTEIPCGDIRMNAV

Structure (SMILES)	Ki (serotonin-reuptake sites)	ED50 [1]
Cl.N#Cc1ccc2[nH]cc(CC3CCN(CCc4cc5c(cc4Cl)NC(=O)C5)C3)c2c1 (stereo not drawn) [Example 6, 3-({1-[2-(6-Chloro-2-oxo-2,3-dihydro-1H-indol-5-yl)ethyl]-3-pyrrolidinyl}methyl)-1H-indole-5-carbonitrile Hydrochloride]	0.4 nM	3.8 mg/kg
Cl.N#Cc1ccc2[nH]cc(CC3CCN(CCc4ccc5c(c4)CC(=O)N5)C3)c2c1 (stereo not drawn) [Example 7, 3-({1-[2-(2-Oxo-2,3-dihydro-1H-indol-5-yl)ethyl]-3-pyrrolidinyl}-methyl)-1H-indole-5-carbonitrile Hydrochloride]		1.5 mg/kg

From patent publication US6492366B1, “Cyano-indole serotonin-reuptake inhibitor compound” (Les Laboratoires Servier, priority 1999, dated 2002)
